Data from publication PMC8341910, “Structural and biophysical insights into the mode of covalent binding of rationally designed potent BMX inhibitors” (RSC Chemical Biology, 2020).
In brackets after ≈: the same amount, converted by molar mass. Several values for one entry are separate records, joined by “and”; a condition that tells them apart may be missing. Identical values can stand only once. Like-named read-outs stand apart in the source and are kept apart here.

Legend:
[1] = tested on: Jurkat; assay: Multi cell line growth assay (CellTiter-Glo, 72 h); assay type: cell-based, human; conditions: Blood, ND = no growth inhibition observed
[2] = target: T1, BMX (Homo sapiens, UniProt P51813); assay: BMX biochemical activity assay (HTRF, phosphorylation of a biotinylated peptide)
T1 sequence (P51813 1-675): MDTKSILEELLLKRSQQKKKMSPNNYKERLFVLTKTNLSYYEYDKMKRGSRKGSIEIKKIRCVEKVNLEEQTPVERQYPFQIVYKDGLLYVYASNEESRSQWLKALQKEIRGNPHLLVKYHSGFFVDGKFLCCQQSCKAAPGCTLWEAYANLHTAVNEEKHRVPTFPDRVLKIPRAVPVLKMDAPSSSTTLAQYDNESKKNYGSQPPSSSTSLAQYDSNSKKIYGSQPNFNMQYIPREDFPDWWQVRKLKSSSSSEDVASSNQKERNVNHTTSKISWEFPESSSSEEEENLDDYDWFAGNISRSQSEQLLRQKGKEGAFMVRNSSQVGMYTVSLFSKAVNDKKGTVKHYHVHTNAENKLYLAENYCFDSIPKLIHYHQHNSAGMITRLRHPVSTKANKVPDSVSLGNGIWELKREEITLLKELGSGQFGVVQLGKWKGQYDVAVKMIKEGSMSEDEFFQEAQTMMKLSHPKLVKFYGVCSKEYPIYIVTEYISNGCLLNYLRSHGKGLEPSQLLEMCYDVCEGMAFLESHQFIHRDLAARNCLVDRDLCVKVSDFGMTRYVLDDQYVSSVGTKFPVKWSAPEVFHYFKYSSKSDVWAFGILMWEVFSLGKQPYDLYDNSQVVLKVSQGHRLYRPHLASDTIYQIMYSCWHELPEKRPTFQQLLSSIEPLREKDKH

[3] = tested on: Kasumi; assay: Multi cell line growth assay (CellTiter-Glo, 72 h); assay type: cell-based, human; conditions: Blood, ND = no growth inhibition observed
[4] = tested on: SK-N-MC; assay: Multi cell line growth assay (CellTiter-Glo, 72 h); assay type: cell-based, human; conditions: Brain, ND = no growth inhibition observed
[5] = pH 6.8
Source text: (§1) For assessment of drug permeability, we relied on parallel artificial membrane permeability assay (PAMPA) performed at Pion Inc. with the PAMPA Evolution™ instrument (Table S1, ESI ^†).
(§2) methods (ESOL model1 and Ali et al.2) PAMPA: Pe is effective permeability (x10-6 cm/sec)
(§3) measured directly from assay at pH 6.8 and %R is membrane retention.
(§4) as the average of quadruplicates. Und label refers to compounds with extremely low solubility
(§5) for which UV limits were below the detection limits therefore considered undetected.
(§6) Compounds were labelled as high permeability (green), medium permeability (orange) or low
(§7) Artificial Membrane Permeability (PAMPA):
(§8) The PAMPA Evolution™ instrument was used to determine permeability, at Pion Inc. In
(§9) PAMPA, a sandwich is formed such that each composite well is divided into two chambers,
(§10) measured at pH 6.8 in the donor compartment using low-binding, low UV Prisma buffer. The
(§11) drug-free acceptor compartment was filled with acceptor sink buffer containing a scavenger at
(§12) the start of the test. The proprietary scavenger mimics serum proteins and blood circulation,
(§13) thus creating sink conditions. Aqueous solutions of studied compounds are prepared by diluting
(§14) and thoroughly mixing 3 µL of DMSO stock in 600 µL of Prisma HT buffer. Final
(§15) concentration of organic solvent (DMSO) in aqueous buffer is ≤ 0.5% (v/v). The reference
(§16) solution is identical to the donor at time zero, so that any surface adsorption effects from the
(§17) plastic ware is compensated. The PAMPA sandwich was assembled and allowed to incubate
(§18) for ~15 hours. The solutions in the donor compartment were un-stirred within duration of the
(§19) experiment. Thus, the thickness of the aqueous boundary layer expected to be about 1000 µm.
(§20) The sandwich was then separated, and both the donor and receiver compartments were assayed
(§21) for the amount of drug present by comparison with the UV spectrum obtained from reference

[6] = Dynamic light scattering, colloidal aggregation; assay type: physicochemical; conditions: measured at 10 µM, 1 µM and 100 nM, 25 °C, read-out: DLS maximum soluble concentration at which no aggregates are observed
Experimental: In addition, we measured particle sizes by using dynamic light scattering (DLS).
DLS is measured at 10 µM, 1µM and 100 nM. The maximum soluble
concentration – at which no aggregates are observed - is indicated and the colour code indicates
Dynamic Light Scattering:
Dynamic light scattering (Zetasizer Nano S, Malvern, UK) was used to determine compound colloidal aggregation. […] A 10 mM stock solution of
test compounds was prepared in DMSO, following dilution to deionized and filtered water to
obtain an analyte solution of 10 μM (0.1% DMSO). Colloidal aggregation was measured
through sequential dilutions at 10 μM, 1 μM and 0.1 μM.

[7] = tested on: 22 RV1; assay: Multi cell line growth assay (CellTiter-Glo, 72 h); assay type: cell-based, human; conditions: Prostate, ND = no growth inhibition observed
[8] = tested on: RS4(11); assay: Multi cell line growth assay (CellTiter-Glo, 72 h); assay type: cell-based, human; conditions: Lung (so in the source), ND = no growth inhibition observed
[9] = tested on: H1299; assay: Multi cell line growth assay (CellTiter-Glo, 72 h); assay type: cell-based, human; conditions: Bone marrow (so in the source), ND = no growth inhibition observed
[10] = tested on: CAOV3; assay: Multi cell line growth assay (CellTiter-Glo, 72 h); assay type: cell-based, human; conditions: Ovary, ND = no growth inhibition observed
[11] = tested on: LNCaP; assay: Multi cell line growth assay (CellTiter-Glo, 72 h); assay type: cell-based, human; conditions: Prostate, ND = no growth inhibition observed within the concentrations tested
[12] = tested on: DAUDI; assay: Multi cell line growth assay (CellTiter-Glo, 72 h); assay type: cell-based, human; conditions: Lymphoid, ND = no growth inhibition observed
[13] = tested on: PC3; assay: Multi cell line growth assay (CellTiter-Glo, 72 h); assay type: cell-based, human; conditions: Prostate, ND = no growth inhibition observed
[14] = target: T2, recombinant human BMX protein (hBMX) (Homo sapiens, UniProt P51813); assay: Differential scanning fluorimetry (DSF); assay type: binding; conditions: 100 μM compound; for Average Tm of BMX with compound: apo-BMX Tm 51.8-52.2 °C
T2 construct: Crystallization, data collection, and structure determination of BMX catalytic domain in; made in house; host or cells: Sf-9 insect cells
Experimental: We further characterized the binding interaction between JS24–JS27 and BMX by using differential scanning fluorimetry (DSF) and surface plasmon resonance (SPR). Purified recombinant human BMX protein (hBMX) was first subjected to thermal scanning in the absence and presence of JS24–JS27, and the respective protein melting temperature (Tm) calculated.
Differential Scanning Fluorimetry:
DSF was performed in MicroAmp™ EnduraPlate™ Optical 96 -Well Clear Reaction Plates
with Barcode (Applied Biosystems, Life Technologies, California, USA) using a QuantStudio
7 Flex Real-Time PCR System (Applied Biosystems). Pre-incubation of the protein with the
compound for 2 hours at 4 °C was required prior to DSF experiments. The final reaction mixture
(20 μL of total volume) contained 4 μg of His6-BMX, 4-fold of Protein Thermal Shift™ Dye
(Applied Biosystems) diluted in protein buffer solution, and 100 μM of compound. The
temperatures were obtained by taking the midpoint of each transition.

[15] = tested on: LNCaP cells; assay: Anti-proliferative co-treatment assays in LNCaP; assay type: cell-based; conditions: JS24 3 μM, JS25 5 μM, JS26 6 μM, 5 days
[16] = in vitro; conditions: PAMPA
Source text: as §1, §2, §3, §4, §5, §6, §7, §8, §9, §10, §11, §12, §13, §14, §15, §16, §17, §18, §19, §20, §21

[17] = target: T3, His6-hsBMX (Homo sapiens, UniProt P51813); assay: Surface plasmon resonance (SPR); assay type: binding; conditions: 1:1 Langmuir fit, 25 °C
T3 construct: Crystallization, data collection, and structure determination of BMX catalytic domain in; made in house; host or cells: Sf-9 insect cells

[18] = tested on: LNCaP cells; assay: LNCaP cell growth assay (CellTiter-Glo, 96 h); assay type: cell-based; conditions: Homo sapiens, 96-well plates, mean of three experiments in triplicate, read-out: GI50 LNCaP
Experimental: (§22) GI50 values are reported in μM and are the mean of three individual experiments performed in triplicate. N.d., non-determined, no growth inhibition observed within the concentrations tested.
(§23) Cellular activity Assay: LNCaP and PC-3 Cell Growth Assay
(§24) Cells were seeded in white, opaque-bottom 96-well plates at 5000 cells/well (LNCaP) or 2000 cells/well (PC-3) in a total volume of 100 µL of culture media.
(§25) fold) in 100 µL media were added to the cells 24 hours later. After 96 hours incubation cellular viability was assessed by CellTiter-Glo® (Promega) according to the manufacturer’s instructions. The values were normalized to vehicle and IC50 was calculated using GraphPad

[19] = tested on: PC3 cells; assay: PC-3 cell growth assay (CellTiter-Glo, 96 h); assay type: cell-based; conditions: Homo sapiens, PC-3; 96 h, 96-well plates; N.d. = no growth inhibition observed within the concentrations tested; read-out: GI50 PC3
Experimental: as §22, §23, §24, §25

[20] = target: T1, BMX; assay: Kinetic characterization with ADP-Glo kinase assay; assay type: biochemical; design: purchased Promega Corporation (USA) V4512; conditions: duplicate, mean ± S.D.
Source text: The inactivation of BMX occurs in a two-step process that is governed by two parameters: the affinity of the initial non-covalent binding, KI, and the rate of the subsequent covalent bond-forming reaction with the thiol of the cysteine residue, kinact. […]. […] Thus, taking into account that all the analogues have the same Michael acceptor moiety, the enhanced activity must be a result of the structural modifications introduced in the scaffold. […]
Kinetic characterization using an ADP-GLOTM kinase assay:
The BMX enzyme system (Catalog. V4512) and the ADP-GloTM kinase assay were purchased from Promega Corporation (USA). In each kinase reaction, the concentration of BMX was set to 4.5 ng/µL. The peptide substrate Poly (4:1 Glu, Tyr) and ATP concentrations were set to 0.25 mg/mL and 50 µM, respectively. BMX was pre-incubated with different inhibitor concentrations (10-fold serial dilutions, starting at 1 mM), over different time periods (2 - 60 min), before initiating the kinase reactions. Reactions were started by adding 2.5X Poly E4Y1/ATP mixture. The reactions were carried out in a 384-well plate, stopping all at the same time with the addition of 5 µL of ADP-GloTM reagent, to consume the remaining ATP within 40 min. Then, 10 µL of kinase detection reagent was added into the wells and incubated for 30 min to produce a luminescence signal. The signal was measured using an Infinite M200 […]
observed rate constants for inhibition (kobs), at different inhibitor concentrations, were determined from the slope of a semi-logarithmic plot of inhibition versus time, and re-plotted against inhibitor concentration (nM). The experimental values were fitted into a hyperbolic function using GraphPad Prism 8 ([…]), to obtain the KI, kinact, and kinact/KI, as described previously.12 […]
(Thermo Fisher Scientific) using gold-coated glass needles. […]

Compound | GI50 [1] | GI50 [3] | GI50 [4] | PAMPA/%R membrane retention [5] | PAMPA/Pe effective permeability [5] | solubility ([6]; water) | GI50 [7] | GI50 [8] | GI50 [10] | GI50 [11] | GI50 [12] | Average Tm of BMX with compound [14] | also measured
CC=CC(=O)Nc1cc(-n2c(=O)ccc3cnc4ccc(-c5ccc(NS(C)(=O)=O)cc5)cc4c32)ccc1C [JS10] | 9.71 ± 1.48 µM | 4.37 ± 0.04 µM | 11.2 µM | 33±4% | 28±4 x10-6 cm/sec | 0.1 µM (≈ 0.0539 µg/mL) | 4.86 ± 0.11 µM | 5.06 µM | 17.3 µM | 9.7 µM | 2.57 ± 0.09 µM |  | IC50 ([2]; Experiment 1 of Fig. S3, control JS9A (in-house BMX-IN-1), read-out: BMX IC50): 21 ± 7.25 µM; BMX potency loss (fold) against control BMX-IN-1 ([2]; relative to the control of the same set of experiments): 58 fold; GI50 [9]: 19.4 µM
CC(C)=CC(=O)Nc1cc(-n2c(=O)ccc3cnc4ccc(-c5ccc(NS(C)(=O)=O)cc5)cc4c32)ccc1C [JS11] | 6.36 ± 0.17 µM | 10.14 ± 0.07 µM | 8.24 µM | 54±9% | 31±4 x10-6 cm/sec | 0.1 µM (≈ 0.0553 µg/mL) | 7.3 µM | 6.66 µM | 19.3 µM | 10.4 µM | 4.57 ± 0.12 µM | 52.26±0.11 °C | GI50 [13]: 20.1 µM; ΔTm ([14]; versus apo-BMX): 0.34±0.11 °C
C=CC(=O)Nc1cccc(-n2c(=O)ccc3cnc4cc(-c5ccc(NS(C)(=O)=O)cc5)ccc4c32)c1 [JS26] |  |  |  | 8±14% |  |  |  |  |  |  |  | 61.47±0.21 °C | IC50 ([2]; Experiment 4 of Fig. S3 = Fig. 1b, duplicate, mean ± S.D., read-out: BMX inhibition IC50): 0.0091 µM; LE (BMX) ([2]; ligand efficiency): 0.30; LipE (BMX) ([2]; lipophilic efficiency): 4.45; decrease in cell viability ([15]; co-treatment with AKT1/2 (1 μM), relative to control AKT1/2): 63%; decrease in cell viability ([15]; co-treatment with LY294002 (3 μM)): 35%; Papp ([16]; pH 6.8, PAMPA permeability): 19 ×10⁻⁶ cm/s; Papp ([16]; pH 6.8, PAMPA/Pe effective permeability): 19 ± 13 ×10⁻⁶ cm/s; koff [17]: < 0.0001 s⁻¹; kon [17]: 72000 M⁻¹ s⁻¹; GI50 [18]: 7.7 µM; GI50 [19]: 10.1 ± 1.3 µM; solubility ([6]; deionized and filtered water (0.1% DMSO), kinetic from dmso stock): ≥ 10 µM; k inact [20]: 0.443 min⁻¹ and 0.443 ± 0.003 min⁻¹; ΔTm at 100 µM ([14]; versus apo-BMX, read-out: ΔTm): 9.34 ± 0.21 °C
